From US20220378046A1, “EFFECTS OF NF-kB SIGNALING INHIBITORS ON BED BUG RESISTANCE TO ORALLY PROVISIONED ENTOMOPATHOGENIC BACTERIA” (South Dakota Board of Regents, priority 2021, published 2022)
Read-outs that look alike come from different tables or passages of the source.

Experiments:
[1] = test system: Pseudomonas entomophila; test: Direct effects of NF-kB signaling inhibitors on growth of P. entomophila cultures (OD600); format: cell-based; conditions: 10 μg/mL; LB medium; shaken overnight at room temperature
Text: (§1) The effects of NF-kB signaling inhibitors were further assessed on growth of bacterial entomopathogen cultures. Two bacterial entomopathogens were used in the present example. The Gram-positive bacterium B. thuringiensis israelensis was obtained from Carolina Biological Supply (Burlington, N.C., USA). This bacterium was investigated due to its potential activity against bed bugs when ingested. The Gram-negative bacterium P. entomophila was obtained from the German Collection of Microorganisms and Cell Cultures (DSMZ, Braunschweig, Germany). Stocks of these bacteria were grown overnight in Luria-Bertani (LB) medium on a shaker at room temperature.
(§2) To determine if the inhibitors had any direct impact on the growth of entomopathogenic bacteria prior to their administration in vivo, cultures of each bacterium were inoculated into LB medium and individual inhibitors were added to the cultures at a final concentration of 10 μg/mL. Cultures containing equal volumes of DMSO diluent served as controls. After shaking overnight at room temperature, growth of bacteria in the presence of inhibitors was quantified by measuring optical density of the cultures at 600 nm (OD600) on a spectrophotomer. OD600 values of cultures containing inhibitors were then normalized to DMSO controls. Three replicates were conducted with each inhibitor and growth was compared to controls (set at 1) using a one-sample t-test.

[2] = test system: Bacillus thuringiensis israelensis; test: Direct effects of NF-kB signaling inhibitors on growth of B. thuringiensis israelensis cultures (OD600); format: cell-based; conditions: 10 μg/mL; LB medium; shaken overnight at room temperature
Text: as §1, §2

[3] = test system: Cimex lectularius; test: Three-day survivorship of bed bugs fed NF-kB signaling inhibitors combined with B. thuringiensis israelensis; format: in vivo; conditions: 10 μg/mL inhibitor in blood meal with bacteria; three days; Gehan-Breslow test p=0.86
Protocol: (§3) For the following non-limiting Examples, the Cincinnati SRL strain of Cimex lectularius was used for the population of bed bugs. This strain was derived from a population of individuals collected by technicians from Sierra Research Laboratories, Inc. (Modesto, Calif.) in 2007 and has been maintained under laboratory conditions since this time. Colonies were maintained at the University of South Dakota in plastic jars containing corrugated cardboard harborages at 28 +/−1° C. and 60-70% relative humidity on a 12:12 photoperiod. The colonies were fed aseptically collected defibrinated rabbit blood (Hemostat Laboratories, Dixon, Calif.) once per week using an artificial membrane system (Hemotek Ltd., Blackburn, United Kingdom).
The effect of the combination treatment of NF-kB signaling inhibitors and bacterial entomopathogens on bed bug resistance to the bacterial entomopathogens was analyzed. To determine if NF-kB signaling inhibitors could reduce resistance to orally provisioned entomopathogenic bacteria, cultures of each bacterium were grown overnight by shaking at room temperature. […] The evaluated inhibitors or DMSO diluent were added to the blood meal containing diluted bacteria to a final concentration of 10 ug/mL. […] Short-term mortality was then monitored over a period of three days. […]

[4] = test system: Cimex lectularius; test: Three-day survivorship of bed bugs fed P. entomophila alone or combined with NF-kB signaling inhibitors; format: in vivo; conditions: for effect on mortality during P. entomophila infection: 10 μg/mL inhibitor in blood meal with P. entomophila, three days, relative to bacterium alone; for mortality at 10 µg/mL: Cimex lectularius, P. entomophila combined with 10 μg/mL inhibitor in blood meal
Protocol: as §3
The effect of the combination treatment of NF-kB signaling inhibitors and bacterial entomopathogens on bed bug resistance to the bacterial entomopathogens was analyzed. To determine if NF-kB signaling inhibitors could reduce resistance to orally provisioned entomopathogenic bacteria, cultures of each bacterium were grown overnight by shaking at room temperature. The following day, cultures of P. entomophila were standardized to an OD600 value of 2.3 (3×10^8 colony forming units/mL) and cultures of B. thuringiensis isralensis were standardized to an OD600 value of 2.2 (7×10^7 colony forming units/mL), based on their overnight growth across replicates. P. entomophila was then further diluted 1:100 in defibrinated rabbit blood, whereas B. thuringiensis israelensis was further diluted 1:50 in defibrinated rabbit blood due to its generally lower virulence. The evaluated inhibitors or DMSO diluent were added to the blood meal containing diluted bacteria to a final concentration of 10 ug/mL. The groups of bed bugs fed DMSO diluent in blood were included as controls. Groups of bed bugs consisting of roughly even numbers of adult male and female bed bugs that had not blood fed for at least seven days were provided access to treated blood meals using the artificial membrane system (Hemotek Ltd.) until fully engorged. Short-term mortality was then monitored over a period of three days. Three independent biological replicates with 10-14 insects per group were carried out and cumulative survival curves were compared using the Gehan-Breslow-Wilcoxon test.

[5] = test system: Cimex lectularius; test: Estimation of P. entomophila load in vivo in bed bugs (CFU/insect); conditions: 10 μg/mL inhibitor with P. entomophila in blood meal, 24 hours post-infection
Protocol: The bacterial load of entomopathogen was further analyzed to determine whether enhanced mortality during P. entomophila infection was associated with increased bacterial load (reduced resistance). For this analysis, adult male bed bugs that had not fed for at least seven days were provided access to blood meals containing P. entomophila with or without 10 μg/mL of IKK16 using the artificial membrane system (Hemotek Ltd.) until fully engorged. The two treatments were prepared as described in Example 3. After 24 hours, live and dead bed bugs from each infected treatment group were collected. Individual insects were surface sterilized by rinsing with 10% bleach and 70% ethanol and homogenized in sterile phosphate buffered saline (PBS). Homogenates were then serial diluted in PBS and plated on LB agar plates to estimate the load of P. entomophila bacteria expressed as colony forming units (CFU) per insect after 24 hours of incubation at 28° C. Because culturable bed bug commensals in the gut are minimal and slow growing, this methodology allows for the specific quantification of P. entomophila. Two independent biological replicates were conducted (15 individual insects examined per treatment group in total). The insects in each treatment were further subdivided into dead and live categories for analysis. […]

[6] = test system: Cimex lectularius; test: Toxicity of NF-kB signaling inhibitors fed as lone agents to bed bugs (seven-day survivorship); format: in vivo; conditions: 5 μg/mL or 10 μg/mL in blood meal; 7 days; chi-square test p=0.54
Protocol: as §3
The bed bugs were fed four individual small molecule inhibitors of NF-kB signaling (BMS345541, IKK16, IMD0354, Takinib) alone or in combination with two different bacterial entomopathogens (Pseudomonas entomophila and Bacillus thuringiensis israelensis). […] The effects on both bed bug mortality and bacterial growth were assessed.
The toxicity of NF-kB signaling inhibitors was analyzed by feeding the inhibitors as lone agents to bed bugs. In particular, the four individual small molecule inhibitors of NF-kB signaling (BMS345541, IKK16, IMD0354, Takinib) were analyzed. […] Mortality was then monitored regularly over a period of seven days. […]

[7] = test system: Rhodnius prolixus; conditions: cited from earlier work

Row | SMILES | growth of P. entomophila relative to DMSO control (OD600) [1] | growth of B. thuringiensis israelensis relative to DMSO control (OD600) [2] | effect on mortality during infection with B. thuringiensis [3] | effect on mortality during P. entomophila infection [4] | mortality at 10 µg/mL ([4]; 24 h, read-out: mortality at day 1) | mortality at 10 µg/mL ([4]; 48 h, read-out: mortality at day 2) | mortality at 10 µg/mL ([4]; 72 h, read-out: mortality at day 3) | effect on tolerance (mortality with lower bacterial loads) in vivo [5] | P. entomophila load in live bed bugs versus live counterparts not treated with the inhibitor ([5]; ANOVA p=0.021) | direct toxicity to bed bugs (mortality relative to DMSO controls) [6] | expression of antimicrobial peptides [7] | mortality during both bacterial and parasitic infections [7]
1 | Cc1ccc2nc(NCCN)c3ncc(C)n3c2c1 [BMS345541, N1-(1,8-dimethylimidazo[1,2-a]quinoxalin-4-yl)ethane-1,2-diamine] | did not affect the growth | did not affect the growth | little to no effect | little to no effect |  |  |  |  |  |  |  | 
2 | O=C(c1ccc(Nc2nccc(-c3cc4ccccc4s3)n2)cc1)N1CCC(N2CCCC2)CC1 [IKK16, (4-((4-(Benzo[b]thiophen-2-yl)pyrimidin-2-yl)amino)phenyl)(4-(pyrrolidin-1-yl)piperidin-1-yl)methanone] | did not affect the growth | inhibited the growth |  | significantly increased | 74.3% | 80% | 82.9% | did not affect tolerance | higher loads |  |  | 
3 | O=C(Nc1cc(C(F)(F)F)cc(C(F)(F)F)c1)c1cc(Cl)ccc1O [IMD0354, N-(3,5-bis(trifluoromethyl)phenyl)-5-chloro-2-hydroxybenzamide] | inhibited the growth | inhibited the growth |  |  |  |  |  |  |  | not directly toxic | suppressed expression | increased mortality
4 | CCCn1/c(=N/C(=O)c2cccc(C(N)=O)c2)[nH]c2ccccc21 [Takinib, 3-N-(1-propylbenzimidazol-2-yl)benzene-1,3-dicarboxamide] | did not affect the growth | did not affect the growth | little to no effect | little to no effect |  |  |  |  |  |  |  | 
